Measurements: patent publication US20240389587A1, “COMPOSITIONS AND METHODS FOR CONTROLLING PHYTOPATHOGENIC INFECTIONS” (INSTITUT NATIONAL DE RECHERCHE POUR L'AGRICULTURE, …, priority 2021, published 2024)
Read-outs that look alike come from different tables or passages of the source.

Legend:
[1] = test system: Alternaria brassicicola; assay: In vitro nephelometric fungal growth test; conditions: for Cmax (concentration inducing at most 20% inhibition of fungal growth) / CTP (retained non-fungicidal concentration applied in planta): A. brassicicola; for CTP (retained non-fungicidal concentration applied in planta): inferior to MIG50 and inferior or equal to Cmax; for IC50: Alternaria brassicicola, 33 h, read-out: MIG50 (concentration inducing 50% inhibition of fungal growth)
Experimental: (§1) For inoculum preparation, conidia of A. brassicicola or B. cinerea were collected from solid culture by adding water followed by gentle scraping of the agar plate. […] Growth was monitored by nephelometric reader (NEPHELOstar Galaxy®, BMG Labtech, Offenburg, Germany) at 25° C., with orbital shaking 5 min before measurement for 33 h. Turbidity was registered every 10 mins with a gain value of 75. Each well was measured during 0.1 s with a laser beam focus of 2.5 mm. A triplicate was realized for each condition. Area under the growth curve was determined by an Excel matrix developed in the lab. Area under the growth curve was normalized by area of positive control (filamentous fungi+DMSO less compound) and PDB medium to obtain a growth percentage.

[2] = test system: Botrytis cinerea; assay: In vitro nephelometric fungal growth test; conditions: for CTP (retained non-fungicidal concentration applied in planta): inferior to MIG50 and inferior or equal to Cmax; for IC50: Botrytis cinerea, 33 h, read-out: MIG50 (concentration inducing 50% inhibition of fungal growth)
Experimental: as §1

[3] = target: T1, IRE1 (Saccharomyces cerevisiae, UniProt P32361); assay: IRE1 inhibitors screening (inhibition of transcriptional activator HAC1 in yeast); format: cell-based; conditions: for IC50: read-out: IRE1 IC50
T1 construct: endogenous in cells
Source text: A series of natural products were screened for their capacity to inhibit the UPR pathway via the inhibition of IRE1 in an in vitro screening test, based inhibition of the transcriptional activator HAC1 in Saccharomyces cerevisiae (the IRE1 protein is the ‘sole effector of the UPR pathway in fungi).

[4] = in vitro screening, IRE1 activity of less than 80% = retained as IRE1 inhibitor

T1 sequence (P32361 19-1115): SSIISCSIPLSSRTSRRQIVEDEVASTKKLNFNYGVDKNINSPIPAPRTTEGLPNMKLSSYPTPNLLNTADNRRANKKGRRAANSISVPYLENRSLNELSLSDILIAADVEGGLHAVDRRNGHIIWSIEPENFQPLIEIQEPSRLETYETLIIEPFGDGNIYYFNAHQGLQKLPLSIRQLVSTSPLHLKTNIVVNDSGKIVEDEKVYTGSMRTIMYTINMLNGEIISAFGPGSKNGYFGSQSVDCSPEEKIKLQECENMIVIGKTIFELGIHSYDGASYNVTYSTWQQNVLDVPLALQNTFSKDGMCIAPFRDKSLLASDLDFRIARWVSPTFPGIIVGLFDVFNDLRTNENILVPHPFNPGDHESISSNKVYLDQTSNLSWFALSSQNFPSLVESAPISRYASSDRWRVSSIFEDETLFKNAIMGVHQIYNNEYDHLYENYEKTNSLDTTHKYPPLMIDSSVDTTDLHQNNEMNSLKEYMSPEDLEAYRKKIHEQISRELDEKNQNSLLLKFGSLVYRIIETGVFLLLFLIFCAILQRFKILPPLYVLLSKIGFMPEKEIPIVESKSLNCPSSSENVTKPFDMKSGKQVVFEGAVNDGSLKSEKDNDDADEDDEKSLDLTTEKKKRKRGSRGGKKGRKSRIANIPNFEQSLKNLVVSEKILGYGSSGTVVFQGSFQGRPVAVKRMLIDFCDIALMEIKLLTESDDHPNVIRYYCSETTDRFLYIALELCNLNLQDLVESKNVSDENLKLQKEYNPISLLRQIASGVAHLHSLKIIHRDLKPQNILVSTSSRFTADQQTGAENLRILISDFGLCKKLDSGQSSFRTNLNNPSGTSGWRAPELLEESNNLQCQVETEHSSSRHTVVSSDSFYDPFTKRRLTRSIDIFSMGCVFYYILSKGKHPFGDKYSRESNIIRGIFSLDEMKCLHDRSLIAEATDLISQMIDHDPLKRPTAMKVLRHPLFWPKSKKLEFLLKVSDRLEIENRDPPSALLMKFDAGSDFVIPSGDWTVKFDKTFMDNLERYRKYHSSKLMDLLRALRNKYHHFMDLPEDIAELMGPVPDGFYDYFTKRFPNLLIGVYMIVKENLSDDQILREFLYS

Compound: O=Cc1cc(I)cc(I)c1O [DISA1, 3,5-diiodosalicylaldehyde, reference compound]
- Cmax (concentration inducing at most 20% inhibition of fungal growth) [1]: 2 µM
- CTP (retained non-fungicidal concentration applied in planta) [1]: 2 µM
- IC50 [1]: 5.3 ± 0.1 µM
- Cmax (concentration inducing at most 20% inhibition of fungal growth) ([2]; B. cinerea): 2.5 µM
- CTP (retained non-fungicidal concentration applied in planta) ([2]; B. cinerea): 2.5 µM
- IC50 [2]: 6.3 ± 0.7 µM

Compound: CC(C)=CCc1c(O)cc2oc3cc(O)c(O)c(CC=C(C)C)c3c(=O)c2c1O [γ-mangostin, 1,3,6,7-tetrahydroxy-2,8-bis(3-methylbut-2-enyl)xanthen-9-one]
- Cmax (concentration inducing at most 20% inhibition of fungal growth) [1]: 5 µM
- CTP (retained non-fungicidal concentration applied in planta) [1]: 5 µM
- IC50 [1]: 12.2 ± 0.2 µM
- Cmax (concentration inducing at most 20% inhibition of fungal growth) ([2]; B. cinerea): 100 µM
- CTP (retained non-fungicidal concentration applied in planta) ([2]; B. cinerea): 25 µM
- IC50 [2]: > 100 µM
- effect on the antifungal effects of ε-viniferin (in words) ([2]; γ-mangostin 100 μM + ε-viniferin 100 μM, B. cinerea, 35 hours): potentiating effect
- IRE1 inhibition (in words) [3]: inhibit IRE1 in a micromolar scale
- μ (% activation) ± σ [3]: 8.7 ± 5.5%
- IC50 [3]: 7.3 µM

Compound: CC(C)=CCc1c(O)cc2oc3c(O)cccc3c(=O)c2c1O [1,3,5-trihydroxy-2-prenylxanthone, 1,3,5-trihydroxy-2-(3-methylbut-2-enyl)xanthen-9-one]
- Cmax (concentration inducing at most 20% inhibition of fungal growth) [1]: 100 µM
- CTP (retained non-fungicidal concentration applied in planta) [1]: 50 µM
- IC50 [1]: > 100 µM
- Cmax (concentration inducing at most 20% inhibition of fungal growth) ([2]; B. cinerea): 100 µM
- CTP (retained non-fungicidal concentration applied in planta) ([2]; B. cinerea): 25 µM
- IC50 [2]: > 100 µM
- IRE1 inhibition (in words) [3]: inhibit IRE1 in a micromolar scale
- μ (% activation) ± σ [3, 4]: 57.4 ± 4.9%

Compound: COc1ccc2c(c1O)Oc1c(O)ccc3c1[C@H](C2)N(C)CC3 [Claviculine]
- μ (% activation) ± σ [3, 4]: 100.3 ± 2.5%

Compound: CC(C)=CCc1c(O)cc2oc3ccc4c(c3c(=O)c2c1O)C=CC(C)(C)O4 [Calothwaitesixanthone]
- μ (% activation) ± σ [3, 4]: 104.6 ± 1.4%

Compound: O=C1c2c(O)cc(O)cc2O[C@H](c2ccccc2)[C@H]1O [Pinobanksine]
- μ (% activation) ± σ [3, 4]: 101.5 ± 0.8%

Compound: CC(C)=CCc1c(O)cc2oc3ccc(O)cc3c(=O)c2c1O [1,3,7-trihydroxy-2-prenylxanthone]
- μ (% activation) ± σ [3, 4]: 89.7 ± 0.6%

Compound: COc1cc2c(cc1O)C1Cc3cc(OC)c(OC)cc3C(C2)N1C (single isomer, unassigned; (-)) [(−)-Norargemonine]
- μ (% activation) ± σ [3]: 101.7 ± 3.6%

Compound: (−)-monomethylester-15 dehydropinifolic acid
- μ (% activation) ± σ [3, 4]: 103.8 ± 1.1%

Compound: COc1cc2c(cc1OC)C1Cc3ccc(OC)c(OC)c3C(=O)N1CC2 (racemic) [(±)-8-Oxotetrahydropalmatine]
- μ (% activation) ± σ [3, 4]: 99.6 ± 2.8%

Compound: Tetraprenyltoluquinone
- μ (% activation) ± σ [3, 4]: 100.8 ± 1.5%

Compound: COc1c(O)ccc2c(=O)c3c(O)cc4c(c3oc12)C(C)(C)C(C)O4 (stereo not drawn) [5-O-methyl-2-deprenylrheediaxanthone B]
- μ (% activation) ± σ [3, 4]: 91.6 ± 3.3%

Compound: O=c1c2ccc(O)c(O)c2oc2cc(O)cc(O)c12 [1,3,5,6-tétra-hydroxy-xanthone]
- μ (% activation) ± σ [3, 4]: 103.9 ± 0.7%

Compound: O=C(CCc1ccc(O)cc1)c1c(O)cc(O)cc1O [Phloretin]
- μ (% activation) ± σ [3, 4]: 101.8 ± 1.7%

Compound: O=c1cc(-c2ccc(O)c(-c3c(O)cc(O)c4c(=O)cc(-c5ccc(O)cc5)oc34)c2)oc2cc(O)cc(O)c12 [Amentoflavone]
- μ (% activation) ± σ [3, 4]: 101.8 ± 2.3%

Compound: O=C1c2c(O)cc(O)cc2O[C@@H](c2ccc(O)cc2)[C@@H]1c1c(O)cc(O)c2c(=O)cc(-c3ccc(O)cc3)oc12 (racemic) [(±)-Volkensiflavone]
- μ (% activation) ± σ [3, 4]: 95.8 ± 0.5%

Compound: O=c1cc(-c2ccccc2)oc2cc(O)cc(O)c12 [Chrysine]
- μ (% activation) ± σ [3]: 91.7 ± 1.4%

Compound: CC(C)=CCc1c(O)c(CC=C(C)C)c2oc3c(O)cccc3c(=O)c2c1O [8-deoxygartanin]
- μ (% activation) ± σ [3, 4]: 96.6 ± 5.7%

Compound: COc1cccc2c1C(=O)c1nccc3cc4c(c-2c13)OCO4 [Oxostephanine, 15-methoxy-3,5-dioxa-11-azapentacyclo [10.7.1.0^2,6.0^8,20.0^14,19]icosa-(20),2(6),7,9,11,14(19),15,17-octaen-13-one]
- μ (% activation) ± σ [3, 4]: 77.5 ± 0.9%

Compound: Pseudoanibacanine
- μ (% activation) ± σ [3, 4]: 100.0 ± 3.7%

Compound: CC(Cc1ccccc1)NCCCc1ccccc1 (stereo not drawn) [N-(3-Phenyl-n-propyl)-1-phenyl-2-aminopropane]
- μ (% activation) ± σ [3]: 102.6 ± 1%

Compound: CC1(C)C=Cc2c(cc3oc4ccc5c(c4c(=O)c3c2O)C=CC(C)(C)O5)O1 [Thwaitesixanthone]
- μ (% activation) ± σ [3, 4]: 101.1 ± 2.1%

Compound: Anibacanine
- μ (% activation) ± σ [3, 4]: 100.2 ± 3.6%

Compound: COc1ccc2c(c[n+](C)c3c4cc5c(cc4ccc23)OCO5)c1OC [Chelerythrine]
- μ (% activation) ± σ [3, 4]: 103.2 ± 3.6%

Compound: O=C(O)C1=C[C@@H](O)[C@@H](O)[C@H](O)C1 [Shikimic acid]
- μ (% activation) ± σ [3, 4]: 102.0 ± 6.2%

Compound: COc1cc2c(cc1OC)[C@@H]1Cc3ccc(OC)c(OC)c3CN1CC2 [Tétrahydropalmatine]
- μ (% activation) ± σ [3, 4]: 101.8 ± 4.8%

Compound: C[n+]1cc2c3c(ccc2c2ccc4cc5c(cc4c21)OCO5)OCO3 [Sanguinarine]
- μ (% activation) ± σ [3]: 91.1 ± 3.1%

Compound: CC(C)=CCc1c(O)cc(O)c2c(=O)c3cccc(O)c3oc12 [1,3,5-trihydroxy-4-prenylxanthone, 1,3,5-trihydroxy-4-(3-methylbut-2-enyl)xanthen-9-one]
- Cmax (concentration inducing at most 20% inhibition of fungal growth) [1]: 10 µM
- CTP (retained non-fungicidal concentration applied in planta) [1]: 10 µM
- IC50 [1]: 41.3 ± 3.7 µM
- Cmax (concentration inducing at most 20% inhibition of fungal growth) ([2]; B. cinerea): 100 µM
- CTP (retained non-fungicidal concentration applied in planta) ([2]; B. cinerea): 25 µM
- IC50 [2]: > 100 µM
- IRE1 inhibition (in words) [3]: inhibit IRE1 in a micromolar scale
- μ (% activation) ± σ [3, 4]: 70.9 ± 3.2%
- IC50 [3]: 12.8 µM

Compound: O=c1ccc2ccc(O)cc2o1 [Umbelliferone]
- μ (% activation) ± σ [3, 4]: 105.3 ± 2.3%

Compound: O=C(/C=C/c1ccc(O)c(O)c1)OCc1ccccc1 [Benzyl caffeate]
- μ (% activation) ± σ [3, 4]: 104.6 ± 4.8%

Compound: demethylrubraxanthone
- IC50 [3]: 6.5 ± 0.4 µM

Compound: CCCC(=O)c1c(O)c(CC=C(C)C)c2oc(=O)cc(-c3ccccc3)c2c1O [Mammea A/AC]
- μ (% activation) ± σ [3, 4]: 102.4 ± 1.7%

Compound: Caledonixanthone K
- μ (% activation) ± σ [3, 4]: 100.7 ± 2%

Compound: O=C(/C=C/c1ccc(O)c(O)c1)OC/C=C/c1ccccc1 [Cinnamyl caffeate, [(E)-3-phenylprop-2-enyl] (E)-3-(3,4-dihydroxyphenyl)prop-2-enoate]
- IRE1 inhibition (in words) [3]: inhibit IRE1 in a micromolar scale
- μ (% activation) ± σ [3, 4]: 73.4 ± 1.7%
- IC50 [3]: 21.6 µM

Compound: CC(C)=CCOC(=O)/C=C/c1ccc(O)c(O)c1 [Prenyl caffeate]
- μ (% activation) ± σ [3, 4]: 102.4 ± 0.8%

Compound: COc1cc(C[C@H]2C(=O)OC[C@@H]2Cc2ccc3c(c2)OCO3)cc(OC)c1OC [Yatein]
- μ (% activation) ± σ [3]: 100.7 ± 2.5%

Compound: Cycleanine
- μ (% activation) ± σ [3]: 102.2 ± 1.9%

Compound: Cc1cc(=O)oc2cc(O)cc(O)c12 [5,7-dihydroxy-4-methyl coumarin]
- μ (% activation) ± σ [3, 4]: 104.0 ± 1.4%

Compound: COc1cc(/C=C/C(=O)CC(=O)/C=C/c2ccc(O)c(OC)c2)ccc1O [Curcumine]
- μ (% activation) ± σ [3, 4]: 177.3 ± 10.3%

Compound: (±)-Lindératine
- μ (% activation) ± σ [3, 4]: 103.0 ± 2.1%

Compound: COc1cc2oc3cc(O)c(OC)c(CC=C(C)C)c3c(=O)c2c(O)c1CC=C(C)C [β-mangostin]
- μ (% activation) ± σ [3, 4]: 100.3 ± 4.7%

Compound: CC(C)=CCC/C(C)=C/COc1c2ccoc2cc2oc(=O)ccc12 [Bergamotine]
- μ (% activation) ± σ [3, 4]: 103.5 ± 1.6%

Compound: C[C@H]1C(=O)CC[C@@H]2[C@]1(C)CC[C@H]1[C@@]2(C)CC[C@@]2(C)[C@@H]3CC(C)(C)CC[C@]3(C)CC[C@]12C [Friedelin]
- μ (% activation) ± σ [3, 4]: 104.6 ± 0.7%

Compound: CC1=C[C@H]2c3c(c(O)c(O)c4oc5cc(O)cc(O)c5c(=O)c34)[C@H](c3cc(O)c(O)c4oc5cc(O)cc(O)c5c(=O)c34)[C@H]2C(C)(C)C1 [Griffipavixanthone]
- μ (% activation) ± σ [3, 4]: 96.8 ± 1.3%

Compound: (-)-Curine
- μ (% activation) ± σ [3, 4]: 100.0 ± 3.8%

Compound: C=CC(C)(C)c1c(OC)cc(O)c2c(=O)c3ccc(O)c(O)c3oc12 [Isocudraniaxanthone B]
- μ (% activation) ± σ [3, 4]: 94.3 ± 0.9%

Compound: C[C@@H]1O[C@@H](Oc2c(-c3ccc(O)c(O)c3)oc3cc(O)cc(O)c3c2=O)[C@H](O)[C@H](O)[C@H]1O [Quercitrin]
- μ (% activation) ± σ [3]: 102 ± 2.4%
